Patent EP0928340B1, “INVASION-INHIBITORS FOR USE IN WOUND HEALING AND CANCER” (THE REGENTS OF THE UNIVERSITY OF MICHIGAN, priority 1996, dated 2009)
Where two headings read alike, the source gives them in different places.

Experiments:
[1] = tested on: DU-145 prostate cancer cells; experiment: SU-ECM in vitro invasion assay, human prostate cancer cells; format: cell-based; conditions: for IC100: Homo sapiens, DU-145, read-out: concentration that completely (fully) inhibits invasion
Experimental: Adult Strongylocentrotus purpuratus sea urchins were obtained from Pacific BioMarine, and their embryos were cultured to the early pluteus stage in artificial sea water at 15°C. SU-ECM were prepared from them by treatment with nonionic detergent and strerilized by dilution in the appropriate media.
[…] When appropriate, purified bovine plasma fibronectin (Sigma), purified 120 kDa chymotryptic fragment (Gibco BRL). PHSRN or PHSCN peptides (synthesized at the Biomedical Research Core Facilities of the University of Michigan), or GRGDSP or GRGESP peptides (Gibco BRL) were added to the resuspended cells prior to placement of the cells on SU-ECM. In each well of a plate used for an invasion assay, SU-ECM were placed in 0.5 ml of the appropriate medium, and 0.5ml of the resuspended cells dropped on their exterior surfaces. Invasion assays were incubated 1 to 16 hours prior to assay. If some circumstances, invasion assays were fixed in phosphate-buffered saline (PBS) with 2% formaldehyde for 5 minutes at room temperature, then rinsed into PBS.
Invasion assays were coded and scored blindly by microscopic examination under phase contrast at 200- and 400-fold magnification. Each cell contacting an SU-ECM was scored for its position relative to the exterior or interior surfaces. A cell was judged to have invaded if it was located on an interior surface below the focal plane passing through the upper surface of the SU-ECM, but above the focal plane passing through its lower surface. The minimum viability of the cells in each assay was always ascertained at the time of assay by determining the fraction of spread, adherent cells on the bottom of each well scored.
An invasion frequency is defined as the fraction of cells in contact with basement membranes which were located in their interiors at the time of assay. Thus, an invasion frequency of 1 denotes invasion by 100% of the cells in contact with basement membranes. Invasion frequencies were determined multiple times for each cell type assayed. For each type of cell assayed the mean and standard deviation of the invasion frequencies were calculated.
The method of Example 4 is employed, with the addition of varying concentrations of the PHSCN peptide.
Thus, the procedure in Example 4 provides a method for determining the inhibitory potential of the PHSCN peptide by comparing the number of cell invasions in the presence of the PHSCN peptide, with the number of cell invasions in the absence of the PHSCN peptide.
In this example, in vitro invasion of cancer cells into substrates is inhibited with peptides that have been chemically modified with protecting groups and peptides having protecting groups as well as the modification wherein an L-amino acid has been replaced with the D-isomer. PHSCN peptide, blocked PHSCN peptide, and blocked PHSCN peptide with a D-cysteine instead of the L-isomer, were tested (Figure 11).
In this example, in vitro invasion of cancer cells into substrates is inhibited with non-peptide mimetics in comparison with chemically modified peptides (on a molar basis). The peptides of Example 14 (i.e. peptides chemically modified with protecting groups and peptides having protecting groups as well as the modification wherein an L-amino acid has been replaced with the D-isomer) were compared with the non-peptide mimetics DL-N-Acetylhomocysteinethiolactone, Thiobutyrolactone, and Mercaptopropionic acid, in order to investigate the structure activity relationship for invasion inhibition by interaction with the PHSRN-binding pocket of the α5β1 fibronectin receptor (Figure 12)

[2] = target: α5β1 integrin fibronectin receptor (human) (UniProt P08648); experiment: cell-based or functional assay
Sequence of UniProt P08648 (P08648 42-1049, chain 1 of 2): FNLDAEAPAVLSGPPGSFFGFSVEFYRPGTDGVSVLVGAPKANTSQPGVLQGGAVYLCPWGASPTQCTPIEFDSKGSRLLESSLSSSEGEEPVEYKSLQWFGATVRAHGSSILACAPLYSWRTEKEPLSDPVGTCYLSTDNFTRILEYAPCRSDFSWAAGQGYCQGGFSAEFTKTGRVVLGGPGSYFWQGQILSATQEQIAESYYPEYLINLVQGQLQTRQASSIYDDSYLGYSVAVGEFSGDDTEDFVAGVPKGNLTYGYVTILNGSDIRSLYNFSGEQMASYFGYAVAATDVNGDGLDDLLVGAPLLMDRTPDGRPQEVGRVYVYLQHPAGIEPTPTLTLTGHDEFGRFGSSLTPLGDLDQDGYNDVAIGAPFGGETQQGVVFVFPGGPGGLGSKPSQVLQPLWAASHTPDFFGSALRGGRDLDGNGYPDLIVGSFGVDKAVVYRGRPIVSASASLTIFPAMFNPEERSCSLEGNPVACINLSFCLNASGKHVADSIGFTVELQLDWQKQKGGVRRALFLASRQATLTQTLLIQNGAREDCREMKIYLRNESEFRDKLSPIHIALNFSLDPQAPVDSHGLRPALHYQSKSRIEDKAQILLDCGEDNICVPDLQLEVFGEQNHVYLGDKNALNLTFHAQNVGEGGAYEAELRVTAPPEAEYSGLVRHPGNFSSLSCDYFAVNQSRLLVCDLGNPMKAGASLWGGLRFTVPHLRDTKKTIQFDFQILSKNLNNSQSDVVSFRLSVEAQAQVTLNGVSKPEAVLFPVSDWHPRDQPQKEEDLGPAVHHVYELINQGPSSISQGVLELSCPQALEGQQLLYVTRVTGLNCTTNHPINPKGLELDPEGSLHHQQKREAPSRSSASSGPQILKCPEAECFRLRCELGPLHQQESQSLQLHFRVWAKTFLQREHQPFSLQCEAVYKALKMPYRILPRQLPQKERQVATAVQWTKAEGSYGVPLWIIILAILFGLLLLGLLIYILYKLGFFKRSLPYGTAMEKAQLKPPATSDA
Sequence of UniProt P08648 (P05556 21-798, chain 2 of 2, further chain): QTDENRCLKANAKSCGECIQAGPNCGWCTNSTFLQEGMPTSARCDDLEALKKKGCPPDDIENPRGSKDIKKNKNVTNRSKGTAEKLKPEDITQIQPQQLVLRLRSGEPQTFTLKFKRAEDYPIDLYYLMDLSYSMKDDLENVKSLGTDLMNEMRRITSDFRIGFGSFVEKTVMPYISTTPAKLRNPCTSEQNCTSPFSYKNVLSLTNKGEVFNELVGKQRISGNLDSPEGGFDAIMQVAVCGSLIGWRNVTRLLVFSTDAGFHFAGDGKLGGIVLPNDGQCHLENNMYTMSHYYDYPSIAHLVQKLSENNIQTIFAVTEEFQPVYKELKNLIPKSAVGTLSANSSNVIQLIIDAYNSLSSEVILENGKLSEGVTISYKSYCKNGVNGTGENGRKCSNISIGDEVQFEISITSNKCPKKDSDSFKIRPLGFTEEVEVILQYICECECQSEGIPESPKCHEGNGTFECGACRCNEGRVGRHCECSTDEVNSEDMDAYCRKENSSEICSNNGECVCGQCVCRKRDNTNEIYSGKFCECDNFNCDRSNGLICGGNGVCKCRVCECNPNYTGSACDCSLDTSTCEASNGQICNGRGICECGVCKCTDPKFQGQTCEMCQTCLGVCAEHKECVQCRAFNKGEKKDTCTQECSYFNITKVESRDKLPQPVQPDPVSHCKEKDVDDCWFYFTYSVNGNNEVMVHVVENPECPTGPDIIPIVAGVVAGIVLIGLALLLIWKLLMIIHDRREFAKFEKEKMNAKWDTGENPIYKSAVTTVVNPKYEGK

[3] = target: α5β1 integrin fibronectin receptor (human) (UniProt P08648); experiment: cell-based or functional assay; remark: listed apart in the source
[4] = invasion inhibition, molar basis (Figure 12)

Row | concentration giving complete inhibition of invasion of metastatic DU145 cells into SU-ECM in medium with 10% serum [2] [ng/mL] | concentration giving complete inhibition of invasion of metastatic DU145 cells into SU-ECM in medium with 10% serum [3] [µM] | Compound | IC100 [1] [µM] | less active than blocked PHSCN [1, 4] | less active than the unblocked PHSCN peptide [1, 4] [times] | other results
1 |  |  | CC(=O)NC1CCSC1=O (racemic) [DL-N-Acetylhomocysteinethiolactone] | 0.6 | about 10 fold |  | more active than the unblocked PHSCN peptide [1, 4]: about 3 fold
2 |  |  | O=C(O)CCS [Mercaptopropionic acid] |  |  | 1500 | reduction of DU145 invasion ([1]; at any of the concentrations tested, medium with 10% serum (Figure 12)): ≤ 20%; less active in invasion inhibition than thiobutyrolactone [1, 4]: at least 100 times
3 |  |  | O=C1CCCS1 [Thiobutyrolactone] | 30 | about 500 fold | 15 | less active than N-acetylhomocysteinethiolactone [1, 4]: 50 fold
4 |  |  | Ac-PHSCN-NH2 [Ac-PHSCN-NH2] |  |  |  | concentration that completely inhibits invasion ([1]; medium with 10% serum (Example 14, Figure 11)): approximately 1.3 ng/ml; concentration that completely (fully) inhibits invasion ([1]; medium with 10% serum (Example 15, Figure 12)): approximately 0.06 µM
5 | 1.3 | 0.06 | Ac-PHSCN-NH2 peptide |  |  |  | 
6 | 3 | 2 | PHSCN peptide |  |  |  | 
